The kinase profiling compilation of Christmann-Franck et al. (2016)

Legend:
Test in all cases: KINOMEscan competition binding
Conditions in all cases: compound 10.0 µM
[1] = biological target: CDK19 (human) (UniProt Q9BWU1)
[2] = biological target: CSNK1E (human) (UniProt P49674)
[3] = biological target: CSNK1G3 (human) (UniProt Q9Y6M4)
[4] = biological target: CSNK2A2 (human) (UniProt P19784)
[5] = biological target: CaMK1 (human) (UniProt Q14012)
[6] = biological target: EPHA5 (human) (UniProt P54756)
[7] = biological target: FGFR4 (human) (UniProt P22455)
[8] = biological target: FLT4 (human) (UniProt P35916)
[9] = system: KIT (human), P10721 [V559D/T670I]
[10] = system: KIT (human), P10721 [V559D]
[11] = biological target: LIMK1 (human) (UniProt P53667)
[12] = biological target: MAP3K9 (human) (UniProt P80192)
[13] = biological target: MAPK12 (human) (UniProt P53778)
[14] = biological target: MAPK7 (human) (UniProt Q13164)
[15] = biological target: MAPK8 (human) (UniProt P45983)
[16] = biological target: MAPKAPK2 (human) (UniProt P49137)
[17] = biological target: MARK2 (human) (UniProt Q7KZI7)
[18] = biological target: MELK (human) (UniProt Q14680)
[19] = biological target: MYLK (human) (UniProt Q15746)
[20] = biological target: MYLK2 (human) (UniProt Q9H1R3)
[21] = biological target: NEK5 (human) (UniProt Q6P3R8)
[22] = biological target: NTRK1 (human) (UniProt P04629)
[23] = biological target: OXSR1 (human) (UniProt O95747)
[24] = biological target: PAK3 (human) (UniProt O75914)
[25] = biological target: PDGFRB (human) (UniProt P09619)
[26] = system: PIK3CA (human), P42336 [I800L]
[27] = system: PIK3CA (human), P42336 [Q546K]
[28] = biological target: PKMYT1 (human) (UniProt Q99640)
[29] = biological target: PRKCH (human) (UniProt P24723)
[30] = biological target: PRPF4B (human) (UniProt Q13523)
[31] = biological target: RIOK1 (human) (UniProt Q9BRS2)
[32] = biological target: RIOK2 (human) (UniProt Q9BVS4)
[33] = biological target: ROS1 (human) (UniProt P08922)
[34] = biological target: RPS6KA2 KD2 (human) (UniProt Q15349)
[35] = biological target: SBK1 (human) (UniProt Q52WX2)
[36] = biological target: SNRK (human) (UniProt Q9NRH2)
[37] = biological target: SRPK3 (human) (UniProt Q9UPE1)
[38] = biological target: STK32A (human) (UniProt Q8WU08)
[39] = biological target: STK38L (human) (UniProt Q9Y2H1)
[40] = biological target: TNIK (human) (UniProt Q9UKE5)
Sequence of TNIK (human) (Q9UKE5 whole entry, looked up): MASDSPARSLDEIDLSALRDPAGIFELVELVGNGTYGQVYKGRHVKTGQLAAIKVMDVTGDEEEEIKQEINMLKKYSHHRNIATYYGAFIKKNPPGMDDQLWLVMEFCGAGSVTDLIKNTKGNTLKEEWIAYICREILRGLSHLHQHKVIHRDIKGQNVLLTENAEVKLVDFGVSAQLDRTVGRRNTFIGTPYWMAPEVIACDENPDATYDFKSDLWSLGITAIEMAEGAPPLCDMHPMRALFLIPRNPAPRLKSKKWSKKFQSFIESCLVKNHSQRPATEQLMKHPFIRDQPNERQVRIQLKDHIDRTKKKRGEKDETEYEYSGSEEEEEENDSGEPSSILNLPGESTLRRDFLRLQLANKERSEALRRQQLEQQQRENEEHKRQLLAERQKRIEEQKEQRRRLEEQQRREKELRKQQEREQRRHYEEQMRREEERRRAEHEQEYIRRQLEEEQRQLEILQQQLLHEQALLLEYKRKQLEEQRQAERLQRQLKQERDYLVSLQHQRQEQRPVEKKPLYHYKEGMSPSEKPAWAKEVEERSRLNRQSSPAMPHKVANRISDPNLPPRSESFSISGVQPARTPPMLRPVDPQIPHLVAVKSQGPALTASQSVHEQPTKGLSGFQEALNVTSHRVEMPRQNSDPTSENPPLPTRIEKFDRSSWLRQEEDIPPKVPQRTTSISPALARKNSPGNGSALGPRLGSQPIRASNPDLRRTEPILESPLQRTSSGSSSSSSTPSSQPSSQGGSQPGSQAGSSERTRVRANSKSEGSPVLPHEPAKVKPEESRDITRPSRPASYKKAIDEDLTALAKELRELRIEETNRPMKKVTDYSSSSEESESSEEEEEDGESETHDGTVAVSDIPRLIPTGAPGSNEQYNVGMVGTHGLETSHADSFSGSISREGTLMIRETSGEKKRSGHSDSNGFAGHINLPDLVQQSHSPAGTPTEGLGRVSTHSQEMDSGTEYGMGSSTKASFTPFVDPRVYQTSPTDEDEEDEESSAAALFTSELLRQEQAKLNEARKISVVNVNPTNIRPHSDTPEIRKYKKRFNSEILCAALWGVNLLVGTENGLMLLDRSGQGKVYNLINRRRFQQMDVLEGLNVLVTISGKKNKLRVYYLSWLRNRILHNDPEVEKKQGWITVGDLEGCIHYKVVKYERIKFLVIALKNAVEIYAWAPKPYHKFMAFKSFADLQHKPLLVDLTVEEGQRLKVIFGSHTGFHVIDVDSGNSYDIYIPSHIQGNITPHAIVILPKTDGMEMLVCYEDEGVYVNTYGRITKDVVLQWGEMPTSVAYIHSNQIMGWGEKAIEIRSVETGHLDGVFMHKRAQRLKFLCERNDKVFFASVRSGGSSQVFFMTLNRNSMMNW

Sequence of MELK (human) (Q14680 whole entry, looked up): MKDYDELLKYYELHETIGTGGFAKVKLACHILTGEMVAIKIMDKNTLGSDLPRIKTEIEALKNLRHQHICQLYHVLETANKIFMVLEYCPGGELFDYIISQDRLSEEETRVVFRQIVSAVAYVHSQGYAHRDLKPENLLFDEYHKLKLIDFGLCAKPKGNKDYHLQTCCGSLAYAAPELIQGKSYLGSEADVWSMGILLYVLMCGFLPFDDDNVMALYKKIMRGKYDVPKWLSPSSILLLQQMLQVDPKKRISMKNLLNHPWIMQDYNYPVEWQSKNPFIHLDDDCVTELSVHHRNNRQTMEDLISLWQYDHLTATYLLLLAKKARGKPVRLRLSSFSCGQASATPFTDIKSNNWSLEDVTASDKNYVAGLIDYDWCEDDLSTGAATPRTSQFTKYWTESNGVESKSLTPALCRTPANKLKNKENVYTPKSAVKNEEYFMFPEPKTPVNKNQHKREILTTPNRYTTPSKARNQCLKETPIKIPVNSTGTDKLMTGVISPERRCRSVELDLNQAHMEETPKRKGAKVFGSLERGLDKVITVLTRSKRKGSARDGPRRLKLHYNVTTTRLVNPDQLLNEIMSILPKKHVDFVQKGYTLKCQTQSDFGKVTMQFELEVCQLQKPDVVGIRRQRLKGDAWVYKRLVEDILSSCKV
Sequence of PIK3CA (human), P42336 [I800L] (P42336 whole entry I800L, looked up): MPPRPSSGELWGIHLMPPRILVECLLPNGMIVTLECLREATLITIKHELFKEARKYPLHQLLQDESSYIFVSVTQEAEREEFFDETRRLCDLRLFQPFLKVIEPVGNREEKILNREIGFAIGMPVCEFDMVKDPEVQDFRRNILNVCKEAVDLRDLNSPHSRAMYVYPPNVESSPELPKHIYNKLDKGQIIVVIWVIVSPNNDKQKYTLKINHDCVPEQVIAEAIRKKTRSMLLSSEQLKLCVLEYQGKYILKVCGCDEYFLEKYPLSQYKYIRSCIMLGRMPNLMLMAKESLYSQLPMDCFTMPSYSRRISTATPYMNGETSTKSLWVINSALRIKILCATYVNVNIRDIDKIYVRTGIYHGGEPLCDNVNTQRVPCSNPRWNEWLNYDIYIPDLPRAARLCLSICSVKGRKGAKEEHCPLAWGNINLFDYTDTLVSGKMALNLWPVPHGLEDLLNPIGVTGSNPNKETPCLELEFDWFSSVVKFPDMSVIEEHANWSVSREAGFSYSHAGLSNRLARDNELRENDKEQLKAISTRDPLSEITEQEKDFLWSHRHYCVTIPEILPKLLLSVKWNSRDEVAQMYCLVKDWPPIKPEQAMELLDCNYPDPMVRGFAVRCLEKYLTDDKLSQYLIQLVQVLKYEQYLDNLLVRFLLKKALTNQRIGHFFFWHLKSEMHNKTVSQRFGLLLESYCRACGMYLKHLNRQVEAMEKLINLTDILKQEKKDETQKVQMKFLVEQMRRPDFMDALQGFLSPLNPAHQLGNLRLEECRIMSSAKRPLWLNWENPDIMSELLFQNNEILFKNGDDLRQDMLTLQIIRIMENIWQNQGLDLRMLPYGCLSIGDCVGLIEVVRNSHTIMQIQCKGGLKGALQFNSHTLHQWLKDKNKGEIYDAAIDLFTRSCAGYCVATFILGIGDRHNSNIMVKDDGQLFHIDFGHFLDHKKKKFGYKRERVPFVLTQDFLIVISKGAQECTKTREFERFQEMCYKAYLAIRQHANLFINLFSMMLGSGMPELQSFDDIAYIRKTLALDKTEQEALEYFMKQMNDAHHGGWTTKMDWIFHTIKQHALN
Sequence of PRKCH (human) (P24723 whole entry, looked up): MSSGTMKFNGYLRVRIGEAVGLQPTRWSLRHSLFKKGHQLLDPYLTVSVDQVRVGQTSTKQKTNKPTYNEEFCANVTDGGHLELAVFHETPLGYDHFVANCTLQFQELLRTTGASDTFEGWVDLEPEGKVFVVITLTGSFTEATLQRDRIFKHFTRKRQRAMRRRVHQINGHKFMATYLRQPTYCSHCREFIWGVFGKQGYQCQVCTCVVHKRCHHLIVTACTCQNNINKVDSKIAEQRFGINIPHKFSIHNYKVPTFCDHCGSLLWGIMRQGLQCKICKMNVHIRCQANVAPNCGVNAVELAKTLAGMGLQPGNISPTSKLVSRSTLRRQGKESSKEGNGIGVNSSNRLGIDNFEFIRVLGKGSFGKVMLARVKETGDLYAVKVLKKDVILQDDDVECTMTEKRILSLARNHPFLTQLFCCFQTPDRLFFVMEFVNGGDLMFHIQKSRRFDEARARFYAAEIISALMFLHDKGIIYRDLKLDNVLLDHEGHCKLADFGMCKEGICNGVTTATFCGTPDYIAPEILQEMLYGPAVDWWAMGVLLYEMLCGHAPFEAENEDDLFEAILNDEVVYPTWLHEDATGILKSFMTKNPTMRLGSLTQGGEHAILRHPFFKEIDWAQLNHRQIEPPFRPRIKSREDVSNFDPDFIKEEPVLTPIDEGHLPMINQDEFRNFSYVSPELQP
Sequence of FLT4 (human) (P35916 whole entry, looked up): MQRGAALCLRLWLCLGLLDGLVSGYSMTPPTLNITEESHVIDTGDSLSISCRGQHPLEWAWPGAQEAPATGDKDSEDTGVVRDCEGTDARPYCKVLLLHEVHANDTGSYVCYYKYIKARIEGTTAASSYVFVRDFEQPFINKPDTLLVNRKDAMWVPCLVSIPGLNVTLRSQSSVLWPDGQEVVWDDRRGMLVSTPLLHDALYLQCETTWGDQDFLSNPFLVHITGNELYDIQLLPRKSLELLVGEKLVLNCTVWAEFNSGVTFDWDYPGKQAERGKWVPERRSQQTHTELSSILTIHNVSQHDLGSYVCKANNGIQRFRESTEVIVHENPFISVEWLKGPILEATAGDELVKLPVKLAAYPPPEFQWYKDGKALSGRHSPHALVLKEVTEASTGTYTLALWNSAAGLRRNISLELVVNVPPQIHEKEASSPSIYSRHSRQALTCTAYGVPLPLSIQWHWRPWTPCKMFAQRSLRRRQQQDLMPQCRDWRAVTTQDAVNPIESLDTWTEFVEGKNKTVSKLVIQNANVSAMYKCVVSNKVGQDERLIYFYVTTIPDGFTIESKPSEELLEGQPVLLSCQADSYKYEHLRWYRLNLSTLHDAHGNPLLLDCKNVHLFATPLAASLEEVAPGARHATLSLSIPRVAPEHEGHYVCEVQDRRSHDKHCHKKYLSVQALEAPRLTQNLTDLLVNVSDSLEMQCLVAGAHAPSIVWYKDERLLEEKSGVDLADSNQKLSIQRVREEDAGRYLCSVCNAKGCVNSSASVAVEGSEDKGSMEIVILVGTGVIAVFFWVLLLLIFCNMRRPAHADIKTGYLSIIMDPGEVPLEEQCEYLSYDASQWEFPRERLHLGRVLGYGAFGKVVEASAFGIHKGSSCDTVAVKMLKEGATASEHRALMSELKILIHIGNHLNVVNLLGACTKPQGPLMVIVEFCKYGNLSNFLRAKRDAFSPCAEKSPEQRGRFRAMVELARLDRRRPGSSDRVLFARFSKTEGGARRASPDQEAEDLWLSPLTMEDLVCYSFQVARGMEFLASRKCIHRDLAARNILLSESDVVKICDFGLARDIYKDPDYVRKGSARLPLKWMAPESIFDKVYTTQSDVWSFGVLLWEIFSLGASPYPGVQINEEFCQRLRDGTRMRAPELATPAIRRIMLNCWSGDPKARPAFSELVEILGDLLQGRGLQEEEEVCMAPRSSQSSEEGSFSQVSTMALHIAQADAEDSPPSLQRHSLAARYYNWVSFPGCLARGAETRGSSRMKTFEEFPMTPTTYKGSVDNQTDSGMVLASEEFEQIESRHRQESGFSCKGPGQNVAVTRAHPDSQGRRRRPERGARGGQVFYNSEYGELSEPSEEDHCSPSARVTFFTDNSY

In the case of `C=CC(=O)Nc1cccc(Nc2nc(N[C@H]3CC[C@H](N(C)C)CC3)nc3c2ncn3C(C)C)c1`, the kinase still bound, per cent of control [1] is reported as 100%, the kinase still bound, per cent of control [2] is reported as 0.1% and the kinase still bound, per cent of control [3] is reported as 8.2%. For the same molecule, the kinase still bound, per cent of control [4] was 48%, the kinase still bound, per cent of control [5] was 93% and the kinase still bound, per cent of control [6] was 76%. It also gave a kinase still bound, per cent of control [7] of 98%, a kinase still bound, per cent of control [8] of 58% and a kinase still bound, per cent of control [9] of 86%. It also gave a kinase still bound, per cent of control [10] of 42%, a kinase still bound, per cent of control [11] of 100% and a kinase still bound, per cent of control [12] of 17%. It also gave a kinase still bound, per cent of control [13] of 96%, a kinase still bound, per cent of control [14] of 100% and a kinase still bound, per cent of control [15] of 100%. The kinase still bound, per cent of control [16] was 100%, the kinase still bound, per cent of control [17] was 57% and the kinase still bound, per cent of control [18] was 25%. For the same molecule, the kinase still bound, per cent of control [19] was 55%, the kinase still bound, per cent of control [20] was 90% and the kinase still bound, per cent of control [21] was 94%. For the same molecule, the kinase still bound, per cent of control [22] was 15%, the kinase still bound, per cent of control [23] was 33% and the kinase still bound, per cent of control [24] was 100%. It also gave a kinase still bound, per cent of control [25] of 8.4%, a kinase still bound, per cent of control [26] of 100% and a kinase still bound, per cent of control [27] of 100%. For the same molecule, the kinase still bound, per cent of control [28] was 93%, the kinase still bound, per cent of control [29] was 91% and the kinase still bound, per cent of control [30] was 90%. For the same molecule, the kinase still bound, per cent of control [31] was 31%, the kinase still bound, per cent of control [32] was 66% and the kinase still bound, per cent of control [33] was 99%. It also gave a kinase still bound, per cent of control [34] of 81%, a kinase still bound, per cent of control [35] of 20% and a kinase still bound, per cent of control [36] of 68%. The kinase still bound, per cent of control [37] was 47%, the kinase still bound, per cent of control [38] was 89% and the kinase still bound, per cent of control [39] was 41%. For the same molecule, the kinase still bound, per cent of control [40] was 35%.
Work on `N#Cc1c(NC(=O)c2cccc3ccccc23)sc2c1CCCC2` yielded a kinase still bound, per cent of control [1] of 88%, a kinase still bound, per cent of control [2] of 70% and a kinase still bound, per cent of control [3] of 68%. For the same molecule, the kinase still bound, per cent of control [4] was 94%, the kinase still bound, per cent of control [5] was 73% and the kinase still bound, per cent of control [6] was 89%. The kinase still bound, per cent of control [7] was 49%, the kinase still bound, per cent of control [8] was 91% and the kinase still bound, per cent of control [9] was 78%. It also gave a kinase still bound, per cent of control [10] of 60%, a kinase still bound, per cent of control [11] of 76% and a kinase still bound, per cent of control [12] of 72%. For the same molecule, the kinase still bound, per cent of control [13] was 82%, the kinase still bound, per cent of control [14] was 96% and the kinase still bound, per cent of control [15] was 60%. The kinase still bound, per cent of control [16] was 93%, the kinase still bound, per cent of control [17] was 100% and the kinase still bound, per cent of control [18] was 85%. It also gave a kinase still bound, per cent of control [19] of 99%, a kinase still bound, per cent of control [20] of 100% and a kinase still bound, per cent of control [21] of 79%. The kinase still bound, per cent of control [22] was 100%, the kinase still bound, per cent of control [23] was 100% and the kinase still bound, per cent of control [24] was 94%. It also gave a kinase still bound, per cent of control [25] of 44%, a kinase still bound, per cent of control [26] of 98% and a kinase still bound, per cent of control [27] of 79%. The kinase still bound, per cent of control [28] was 77%, the kinase still bound, per cent of control [29] was 87% and the kinase still bound, per cent of control [30] was 100%. The kinase still bound, per cent of control [31] was 100%, the kinase still bound, per cent of control [32] was 91% and the kinase still bound, per cent of control [33] was 90%. It also gave a kinase still bound, per cent of control [34] of 79%, a kinase still bound, per cent of control [35] of 100% and a kinase still bound, per cent of control [36] of 100%. The kinase still bound, per cent of control [37] was 100%, the kinase still bound, per cent of control [38] was 81% and the kinase still bound, per cent of control [39] was 98%. It also gave a kinase still bound, per cent of control [40] of 100%.
Molecule `Cc1cc([C@@H](C)Nc2ccccc2C(=O)O)c2nc(N3CCOCC3)cc(=O)n2c1` has a kinase still bound, per cent of control [1] of 91%, a kinase still bound, per cent of control [2] of 98% and a kinase still bound, per cent of control [3] of 100%. The kinase still bound, per cent of control [4] was 100%, the kinase still bound, per cent of control [5] was 100% and the kinase still bound, per cent of control [6] was 99%. For the same molecule, the kinase still bound, per cent of control [7] was 100%, the kinase still bound, per cent of control [8] was 95% and the kinase still bound, per cent of control [9] was 91%. It also gave a kinase still bound, per cent of control [10] of 91%, a kinase still bound, per cent of control [11] of 100% and a kinase still bound, per cent of control [12] of 91%. The kinase still bound, per cent of control [13] was 94%, the kinase still bound, per cent of control [14] was 100% and the kinase still bound, per cent of control [15] was 100%. The kinase still bound, per cent of control [16] was 66%, the kinase still bound, per cent of control [17] was 90% and the kinase still bound, per cent of control [18] was 100%. The kinase still bound, per cent of control [19] was 70%, the kinase still bound, per cent of control [20] was 100% and the kinase still bound, per cent of control [21] was 100%. The kinase still bound, per cent of control [22] was 88%, the kinase still bound, per cent of control [23] was 100% and the kinase still bound, per cent of control [24] was 98%. The kinase still bound, per cent of control [25] was 100%, the kinase still bound, per cent of control [28] was 100% and the kinase still bound, per cent of control [29] was 82%. The kinase still bound, per cent of control [30] was 71%, the kinase still bound, per cent of control [31] was 100% and the kinase still bound, per cent of control [32] was 54%. It also gave a kinase still bound, per cent of control [33] of 100%, a kinase still bound, per cent of control [34] of 98% and a kinase still bound, per cent of control [35] of 100%. The kinase still bound, per cent of control [36] was 89%, the kinase still bound, per cent of control [37] was 100% and the kinase still bound, per cent of control [38] was 89%. The kinase still bound, per cent of control [39] was 94% and the kinase still bound, per cent of control [40] was 98%.
In the case of `O=C(O)c1ccc(Nc2ncc3c(n2)-c2ccc(Cl)cc2C(c2c(F)cccc2F)=NC3)cc1`, the kinase still bound, per cent of control [1] is reported as 96%, the kinase still bound, per cent of control [2] is reported as 100% and the kinase still bound, per cent of control [3] is reported as 93%. For the same molecule, the kinase still bound, per cent of control [5] was 78%, the kinase still bound, per cent of control [6] was 1.5% and the kinase still bound, per cent of control [7] was 58%. The kinase still bound, per cent of control [8] was 18%, the kinase still bound, per cent of control [10] was 63% and the kinase still bound, per cent of control [11] was 85%. It also gave a kinase still bound, per cent of control [12] of 70%, a kinase still bound, per cent of control [13] of 97% and a kinase still bound, per cent of control [14] of 100%. For the same molecule, the kinase still bound, per cent of control [15] was 100%, the kinase still bound, per cent of control [16] was 100% and the kinase still bound, per cent of control [17] was 93%. The kinase still bound, per cent of control [18] was 81%, the kinase still bound, per cent of control [19] was 95% and the kinase still bound, per cent of control [20] was 100%. The kinase still bound, per cent of control [21] was 46%, the kinase still bound, per cent of control [22] was 35% and the kinase still bound, per cent of control [23] was 94%. The kinase still bound, per cent of control [24] was 52%, the kinase still bound, per cent of control [25] was 34% and the kinase still bound, per cent of control [26] was 84%. For the same molecule, the kinase still bound, per cent of control [27] was 14%, the kinase still bound, per cent of control [28] was 65% and the kinase still bound, per cent of control [29] was 100%. For the same molecule, the kinase still bound, per cent of control [30] was 100%, the kinase still bound, per cent of control [31] was 100% and the kinase still bound, per cent of control [32] was 99%. For the same molecule, the kinase still bound, per cent of control [33] was 23%, the kinase still bound, per cent of control [34] was 64% and the kinase still bound, per cent of control [35] was 100%. It also gave a kinase still bound, per cent of control [36] of 74%, a kinase still bound, per cent of control [37] of 100% and a kinase still bound, per cent of control [38] of 54%. The kinase still bound, per cent of control [39] was 100% and the kinase still bound, per cent of control [40] was 61%.
